Where two headings read alike, the source gives them in different places.
How the values were obtained:
Sprague-Dowley rats = assay: Cutaneous vascular hyperpermeability induced by PAF Acether in the rat; assay type: in vivo; settings: 1 mg/kg IV; for PAF Acether induced wheal, Surface: PAF Acether 25 ng intradermal, 30 mn; for PAF Acether induced wheal, Surface / PAF Acether induced wheal, Coloration OD: p < 0.001; for PAF Acether induced wheal, Coloration OD: optical density at 620 nm; for PAF Acether induced wheal, Coloration % decrease / PAF Acether induced wheal, Surface % decrease: vs control
Protocol: Method: Intradermal injection of 25 ng of PAF Acether in the dorsal region of the rat with simultaneous IV injection of Evans blue dye (60 mg/kg/5 ml) induces vascular hyperpermeability and wheals formation. (for details see Basran GS, Page CP, Paul W and Morley J-Cromoglycate inhibits responses to platelet-activating factor (PAF Acether) in man: an alternative mode of action for DSCG in asthma-Eur. J. Pharma. (1983) 86 143-144).
These wheals were measured (surface in mm^2) at the inner side of the skin 30 mn after the injections and were taken off, put in 4 ml of formamide, incubated at 65° C. during 24 h in order to extract the dye and measure their coloration (optical density at 620 nm).
Groups of 6 Sprague-Dowley rats weighing 200 g were used and each rat received intradermal injections in two sites of the back. The experiment was performed in comparison with a reference compound, D 600 (methoxy verapamil), a calcium-blocker agent.
Treatments: Tested compounds were administered by IV route injected once simultaneously with the dye.

human PRP = assay: Inhibition of PAF Acether-induced PA, human PRP in vitro; assay type: cell-based; settings: PAF Acether 100 nM, read-out: IC Doses (PAF Acether-induced PA, human PRP)
Protocol: (§1) The Inhibition of PAF Acether-induced PA has been studied on rabbit plasma-rich platelets (PRP). Two doses of PAF Acether were used (2.5 nM and 5 nM). The tested compound was added to the medium 3 minutes before PAF Acether and aggregation was followed by monitoring changes in electrical impedance (Whole-Blood aggregometer-chrono-Log); kadsurenone was simultaneously tested as reference compound and the IC50 molar doses of Ginkgolides A, B, C and M and of kadsurenone on PAF Acether-induced rabbit PA (PRP) have been calculated.
The inhibition of PAF Acether-induced PA has been studied on human PRP. The same protocol was used as for rabbit hereinabove.

[1] = system: guinea-pig mesenteric artery; assay: Opto-electronic follow-up of PAF Acether-induced thrombus, guinea-pig mesenteric artery; assay type: in vivo
Source text: In this experimental study, 20 guinea-pigs were used. […] Briefly summarized, this method consists in the dissection over a distance of 2 to 3 mm of a branch of the mesenteric artery following gently extraction of a loop of small intestine. By transillumination, the image of this arterial segment is projected onto a set of 30 light-depending resistances (LDR) arranged in two columns of 15 elements each. An LDR element has the property to change its internal resistance as a function of a variation of light intensity. Each LDR is connected into its own Wheatstone bridge, and the changes in light intensity due to thrombus formation will be recorded as variations in electrical potentials and registered as such via a multiplexing device.
In the present investigation, several discriminating parameters are recorded: (a) the t1 interval or the lag period (this is the time interval between the beginning of the PAF Acether superfusion and the first signs of thrombus formation; (b) the td interval is the duration of the thrombotic phenomenon; (c) the O(t) curve indicates the number of LDR elements covered by the thrombus image; (d) the D(t) curve represents during each 30×1/9×10^-2 sec interval the greatest potential deviation on one of the LDR elements covered by the thrombus image; (e) the T(t) curve represents the summation of the potentials registered on the LDR elements during a time interval of 30×1/9×10^-2 sec the TTV(t) curve results from the integration of the T(t) values in function of time; (f) mD, mT, and mO correspond to the maximal values registered on, respectively, the D(t), T(t), and O(t) curves; (g) TTV is the maximal value of the TTV(t) curve, whereas TVM is the value of this curve up to the point where mT is reached.
In a first series of experiments (10 animals) the effect of local superfusion with PAF Acether (10^-4 M) is investigated.
In a second series of experiments (10 animals) the effects of Ginkgolide B and of kadsurenone have been compared preventively and curatively.

[2] = system: rabbit plasma-rich platelets (PRP); assay: Inhibition of PAF Acether-induced PA, rabbit PRP in vitro; assay type: cell-based; settings: Oryctolagus cuniculus, Platelet, average of 10 assays, read-out: IC50 doses on PAF Acether-induced rabbit PA (PRP)
Protocol: as §1
The results obtained are presented in the following table (average values for 10 assays for each dose) and FIG. 1: […]

New-Zealand rabbits = assay: PAF Acether-induced shock in the rabbit; assay type: in vivo; settings: for Extravasation (O.D.): 2 mg/kg IV perfusion, 30 mn, optical density at 590 nm, average of 10 animals; for Behaviour: behavioural modifications / Behaviour: deaths: 2 mg/kg IV, PAF Acether 2 and 4 nmol/kg, 10 animals per batch
Protocol: Treatment: Tested compounds (Gingkolides A, B and C) or vehicle were perfused in the ear vein in 45 ml NaCl 0.9% for 1 hour before PAF Acether injection. Vehicle consisted of 1.5 ml of propylene glycol completed to 45 ml by isotonic NaCl buffer; Ginkgolides were administered at the dose of 2 mg/kg IV; the figures reported in the following table are the average values of the 10 animals of each batch.

Hartley guinea-pig = assay: PAF Acether-induced bronchoconstriction in the anesthetized guinea-pig; assay type: in vivo; settings: 1 mg/kg IV; for % of bronchoconstriction: 5 minutes before PAF Acether 60 ng/kg IV, % of maximal bronchoconstriction, average of 10 animals; for % of inhibition (bronchoconstriction): vs solvent in the same batch
Protocol: Method: (For details, see B. B. VARGAFTIG, J. LEFORT, F. WAL, M. CHIGNARD and M. C. MEDEIROS-Non-steroidal anti-inflammatory drugs of combined with anti-histamine and anti-serotonin agents interfere with the bronchial and platelet effects of PAF Acether-Enr. J. Pharm. (1982) 82 121-130). Male Hartley guinea-pig (400-500 g) were anesthetized with urethane 2 g/kg Ip., tracheotomised and ventilated by mean of a respiratory pump: 70-80 strokes mn, stroke volume 5 ml, a pneumothorax was done to abolish spontaneous respiration. The right jugular vein was catherized and used for injections.
The initial resistance was kept constant at 10 cm H2 O pressure according to the method of Konzett and Rossler and the overflowed airway was measured with a bronchospasm transducer UGO BASILE connected to a UGO BASILE recorder "GEMINI". Bronchial sensitivity of the animal was checked with acetylcholine (10-40 ng kg^-1 IV) and after constant response was obtained, there were injected, IV, first the propylene glycol and, five minutes later, 60 ng/kg of PAF Acether, which gave the control bronchoconstriction expressed as % of maximal bronchoconstriction given by clamping off the trachea. 40 minutes later, the tested compounds were administered by IV injection and, 5 minutes later, 60 ng/kg of PAF Acether by the same route. This experimentation was conducted on three batches of each 10 animals: first batch for Ginkgolide A, second one for Ginkgolide B and last one for Ginkgolide C, all at the 1 mg/kg dose. The figures of the following table are the average values for the 10 animals of each batch.

[3] = system: guinea-pig lung parenchymal strip; assay: PAF Acether-induced contraction of superfused lung parenchymal strip; settings: for inhibition at 30 µg/mL: Cavia porcellus, read-out: change of PAF Acether (3 ng)-induced contraction; for Contraction induced by PAF Acether (3 ng) (Arbitrary Units): preventive superfusion 30 μg/ml, average of 10 determinations
[4] = system: rabbit plasma-rich platelets (PRP); assay: Aggregation induced by other known aggregants (ADP, thrombine, calcium ionophore A 23187, collagen, adrenaline); assay type: cell-based; settings: calcium ionophore A 23187, collagen and adrenaline
human platelets = assay: Ex vivo PAF Acether-induced PA in man after IV administration; settings: IV 25 mg, PAF Acether 100 nM
Protocol: […] DMSO).
The same protocol described hereinabove for rabbit was used in man with only one dose of each Ginkgolide (IV 25 mg) and two blood takes (at 0.5 h and 1 h).

PAF-Acether receptor = biological target: T1, PAF-Acether receptor (Oryctolagus cuniculus, UniProt G1TEI7); assay: Competition with 3H-PAF Acether binding, rabbit membrane platelet preparation; settings: read-out: reduction of 3H-PAF Acether binding
T1 construct: using a rabbit membrane platelet preparation; from tissue; host or cells: rabbit platelets (membrane preparation)
T1 sequence (G1TEI7 1-342): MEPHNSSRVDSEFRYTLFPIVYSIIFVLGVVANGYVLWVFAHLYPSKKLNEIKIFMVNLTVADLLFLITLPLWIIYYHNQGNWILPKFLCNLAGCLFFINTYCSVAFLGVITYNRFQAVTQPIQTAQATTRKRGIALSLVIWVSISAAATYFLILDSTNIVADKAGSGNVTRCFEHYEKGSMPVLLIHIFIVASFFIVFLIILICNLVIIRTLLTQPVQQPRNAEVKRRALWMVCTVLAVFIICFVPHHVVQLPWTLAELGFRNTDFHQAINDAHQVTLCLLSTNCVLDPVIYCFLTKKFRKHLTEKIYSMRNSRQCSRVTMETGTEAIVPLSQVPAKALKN
Source text: The competition of the alternative binding of either ^3 H-PAF Acether or one of the Ginkgolides was evidenced by radioactive determinations using a rabbit membrane platelet preparation. (100% control=^3 H-PAF Acether alone).

`COc1ccc(CCN(C)CCCC(C#N)(c2cc(OC)c(OC)c(OC)c2)C(C)C)cc1OC` (stereo not shown) [D 600, methoxy verapamil, reference compound] was tested, and the “PAF Acether induced wheal, Surface” value (Sprague-Dowley rats) was 62.6 mm^2, the deaths/6 (Sprague-Dowley rats; group of 6 rats) was “two” and the “PAF Acether induced wheal, Coloration OD” value (Sprague-Dowley rats) was 0.664 OD. The “PAF Acether induced wheal, Coloration % decrease” value (Sprague-Dowley rats) was -42% and the “PAF Acether induced wheal, Surface % decrease” value (Sprague-Dowley rats) was -39%.

In the case of `C=CCC1=C[C@@]2(OC)C(=CC1=O)O[C@H](c1ccc(OC)c(OC)c1)[C@H]2C` [Kadsurenone, kadsurenone, reference compound], the IC50 (human PRP) is reported as 130 µM, the “thrombus formation when superfused with PAF Acether (preventive)” value ([1]; PAF Acether superfusion) is reported as “no thrombus appeared” and the “time for disappearance of pre-formed thrombus (curative)” value ([1]; PAF Acether-induced thrombus) is reported as “about 4.30 minutes”. For the same molecule, the IC50 ([2]; PAF Acether 2.5 nM) was 9.94 µM and the IC50 ([2]; PAF Acether 5 nM) was 14 µM.

`CC1C(=O)OC2C(O)C34C5OC(=O)C3(OC3OC(=O)C(O)C34C(C(C)(C)C)C5O)C12O` (stereo not shown) [Ginkgolide C] was tested, and the “Extravasation (O.D.)” value (New-Zealand rabbits; PAF Acether 2 nmol/kg) was 0.910 O.D, the “Extravasation (O.D.)” value (New-Zealand rabbits; PAF Acether 4 nmol/kg) was 0.875 O.D and the “Behaviour: behavioural modifications” value (New-Zealand rabbits) was “No behavioural”. For the same molecule, the “Behaviour: deaths” value (New-Zealand rabbits) was “No death”, the “% of bronchoconstriction” value (Hartley guinea-pig) was 17.0% and the “% of inhibition (bronchoconstriction)” value (Hartley guinea-pig) was 78.6%. For the same molecule, the IC50 (human PRP) was 150 µM, the inhibition at 30 µg/mL [3] was 70.8% and the “Contraction induced by PAF Acether (3 ng) (Arbitrary Units)” value [3] was 11.08 ± 2.42 Arbitrary Units. For the same molecule, the “PAF Acether induced wheal, Surface” value (Sprague-Dowley rats) was 68.1 mm^2, the “PAF Acether induced wheal, Coloration OD” value (Sprague-Dowley rats) was 0.701 OD and the “PAF Acether induced wheal, Coloration % decrease” value (Sprague-Dowley rats) was -39%. For the same molecule, the “PAF Acether induced wheal, Surface % decrease” value (Sprague-Dowley rats) was -34%, the “effect against aggregation induced by other known aggregants” value (shortened to “effect against aggregation induced”) [4] was “totally ineffective” and the “% of aggregation with respect to control” value (human platelets; blood take at 0.5 h) was 0%. The “% of aggregation with respect to control” value (human platelets; blood take at 1.0 h) was 10.6%, the IC50 ([2]; PAF Acether 2.5 nM) was 15.3 µM and the IC50 ([2]; PAF Acether 5 nM) was 25.4 µM. It also gave an inhibition at 10 µM (PAF-Acether receptor) of 83%.

For `CC1C(=O)OC2C1C13OC4OC(=O)C(O)C45C(C(C)(C)C)C(O)C(OC1=O)C35C2O` (stereo not shown) [Ginkgolide M], the “effect against aggregation induced” value [4] was “totally ineffective”, the IC50 ([2]; PAF Acether 2.5 nM) was 122 µM and the IC50 ([2]; PAF Acether 5 nM) was 20.2 µM. The inhibition at 100 µM (PAF-Acether receptor) was 79%.

`C[C@@H]1C(=O)O[C@H]2C[C@@]34[C@H]5C[C@@H](C(C)(C)C)[C@]36[C@@H](OC(=O)[C@@H]6O)O[C@@]4(C(=O)O5)[C@]21O` [Ginkgolide A] was tested, and the “Extravasation (O.D.)” value (New-Zealand rabbits; PAF Acether 2 nmol/kg) was 0.903 O.D, the “Extravasation (O.D.)” value (New-Zealand rabbits; PAF Acether 4 nmol/kg) was 0.881 O.D and the “Behaviour: behavioural modifications” value (New-Zealand rabbits) was “No behavioural”. For the same molecule, the “Behaviour: deaths” value (New-Zealand rabbits) was “No death”, the “% of bronchoconstriction” value (Hartley guinea-pig) was 13.3% and the “% of inhibition (bronchoconstriction)” value (Hartley guinea-pig) was 84.1%. For the same molecule, the IC50 (human PRP) was 90 µM, the inhibition at 30 µg/mL ([3]; 30 μg/ml, p < 0.001) was 72.8% and the “Contraction induced by PAF Acether (3 ng) (Arbitrary Units)” value [3] was 10.30 ± 2.33 Arbitrary Units. For the same molecule, the “PAF Acether induced wheal, Surface” value (Sprague-Dowley rats) was 64.3 mm^2, the “PAF Acether induced wheal, Coloration OD” value (Sprague-Dowley rats) was 0.631 OD and the “PAF Acether induced wheal, Coloration % decrease” value (Sprague-Dowley rats) was -45%. For the same molecule, the “PAF Acether induced wheal, Surface % decrease” value (Sprague-Dowley rats) was -37%, the “effect against aggregation induced” value [4] was “totally ineffective” and the “% of aggregation with respect to control” value (human platelets; blood take at 0.5 h) was 0%. The “% of aggregation with respect to control” value (human platelets; blood take at 1.0 h) was 5.7%, the IC50 ([2]; PAF Acether 2.5 nM) was 8.32 µM and the IC50 ([2]; PAF Acether 5 nM) was 13.2 µM. The inhibition at 10 µM (PAF-Acether receptor) was 67%.

From US4734280A, “Treatment or prevention of PAF Acether-induced maladies” (priority 1984, dated 1988)
